Test results from patent publication US6403343B2, “Method of producing a taxane-type diterpene and a method of obtaining cultured cells which produce the taxane-type dilterpene at a high rate” (Mitsui Chemicals, Inc., priority 1993, dated 2002).

System: cultured cells of Taxus baccata LINN
Assay: Growth rate and taxane yield, 21-day shake culture of Taxus baccata cells with heavy metal compound, amine, antiethylene agent or Ethrel added
Assay type: cell-based
Description: (§1) One gram (fresh weight) of the callus was inoculated to an Erlenmeyer flask containing 20 ml of liquid Woody Plant Medium to which the above-mentioned component was added to give the same concentration and shake culture was carried out with a rotary shaker (amplification of 25 mm, 100 rpm) and the callus was subcultured in every 21 days to accelerate the growth rate thereof.
Then shake culture was carried out at 25° C. for 21 days.
(§2) After completing the culture, cultured cells of Taxus baccata LINN were harvested by filtration and lyophilized, then the dry weight was measured to obtain the growth rate thereof. Taxane-type diterpenes were extracted from the dried callus with methanol and the like, and they were determined by comparing with standard taxol, cephalomannine, and baccatin III using high performance liquid chromatography to measure the yields of the taxane-type diterpenes.
as §1
One gram (fresh weight) of the cultured cells thus obtained was inoculated to an Erlenmeyer flask containing 20 ml of liquid Woody Plant Medium to which the above-mentioned component had been added to give the same concentration, then spermidine was added to it as amine to give the final concentration of 10^−9M-1M. Then shake culture was carried out at 25° C. for 21 days.
as §2, with “cells” for “callus”, “diterpene.” for “diterpenes.”
as §1, with “component had been” for “component was”
One gram (fresh weight) of the cultured cells thus obtained was inoculated to an Erlenmeyer flask containing 20 ml of liquid Woody Plant Medium to which the above-mentioned component had been added to give the same concentration, and shake culture was carried out at 25° C. for 14 days.

[1] = 2×10^−6 M added 5 times at 4 days' intervals from day 0, total 10^−5 M
[2] = 10^−1 M added at start, 21 days
[3] = 10^−2 M added at start, 21 days
[4] = 10^−3 M added at start, 21 days
[5] = 10^−4 M added at start, 21 days
[6] = 10^−5 M added at start, 21 days
[7] = 10^−5 M added on 7th day, 14 more days
[8] = 10^−5 M added on 14th day, 7 more days
[9] = 10^−5 M added on 18th day, 3 more days
[10] = 10^−5 M at start + methyl jasmonate 10^−4 M on 14th day
[11] = 10^−5 M at start + methyl jasmonate 10^−4 M on 14th day, oxygen 10% in the gas phase
[12] = 10^−5 M at start, oxygen 10% in the gas phase
[13] = 10^−6 M added at start, 21 days
[14] = 10^−7 M added at start, 21 days
[15] = 10^−8 M added at start, 21 days
[16] = 10^−9 M added at start, 21 days
[17] = Ethrel 10^−3 M added at the start (0 day), no acetylsalicylic acid, oxygen 20%
[18] = Ethrel 10^−3 M added at the start (0 day), no acetylsalicylic acid, oxygen 20%, cell + medium
[19] = 1 M added on 14th day, 7 more days
[20] = 10^−1 M added on 14th day, 7 more days
[21] = 10^−2 M added on 14th day, 7 more days
[22] = 10^−3 M added on 14th day, 7 more days
[23] = 10^−4 M added on 14th day, 7 more days
[24] = 10^−6 M added on 14th day, 7 more days
[25] = 10^−7 M added on 14th day, 7 more days
[26] = 10^−8 M added on 14th day, 7 more days
[27] = 10^−9 M added on 14th day, 7 more days

With NCCCCNCCCN [spermidine] the growth rate (1 M added at start, 21 days) was 1.4 times, the “total yield of taxane” value (1 M added at start, 21 days) was 0.21 mg/L and the “yield of baccatin III” value (1 M added at start, 21 days) was 0.10 mg/L. It also gave a yield of cephalomannine (1 M added at start, 21 days) of 0.03 mg/L, a yield of taxol (1 M added at start, 21 days) of 0.08 mg/L and a growth rate [1] of 2.9 times. The “total yield of taxane” value [1] was 27.74 mg/L, the “yield of baccatin III” value [1] was 6.30 mg/L and the yield of cephalomannine [1] was 6.01 mg/L. The yield of taxol [1] was 15.43 mg/L, the growth rate [2] was 2.1 times and the “total yield of taxane” value [2] was 3.35 mg/L. The “yield of baccatin III” value [2] was 0.41 mg/L, the yield of cephalomannine [2] was 1.00 mg/L and the yield of taxol [2] was 1.94 mg/L. For the same compound, the growth rate [3] was 2.0 times, the “total yield of taxane” value [3] was 7.13 mg/L and the “yield of baccatin III” value [3] was 0.82 mg/L. The yield of cephalomannine [3] was 2.42 mg/L, the yield of taxol [3] was 3.89 mg/L and the growth rate [4] was 2.9 times. The “total yield of taxane” value [4] was 17.31 mg/L, the “yield of baccatin III” value [4] was 2.63 mg/L and the yield of cephalomannine [4] was 4.59 mg/L. The yield of taxol [4] was 10.09 mg/L, the growth rate [5] was 3.1 times and the “total yield of taxane” value [5] was 22.23 mg/L. For the same compound, the “yield of baccatin III” value [5] was 2.78 mg/L, the yield of cephalomannine [5] was 6.49 mg/L and the yield of taxol [5] was 12.96 mg/L. The growth rate [6] was 3.1 times, the “total yield of taxane” value [6] was 33.17 mg/L and the “yield of baccatin III” value [6] was 6.59 mg/L. The yield of cephalomannine [6] was 7.30 mg/L, the yield of taxol [6] was 19.28 mg/L and the growth rate [7] was 2.9 times. The “total yield of taxane” value [7] was 27.45 mg/L, the “yield of baccatin III” value [7] was 6.08 mg/L and the yield of cephalomannine [7] was 6.13 mg/L. For the same compound, the yield of taxol [7] was 15.24 mg/L, the growth rate [8] was 2.9 times and the “total yield of taxane” value [8] was 20.98 mg/L. For the same compound, the “yield of baccatin III” value [8] was 5.46 mg/L, the yield of cephalomannine [8] was 5.32 mg/L and the yield of taxol [8] was 10.20 mg/L. The growth rate [9] was 3.0 times, the “total yield of taxane” value [9] was 11.48 mg/L and the “yield of baccatin III” value [9] was 2.95 mg/L. The yield of cephalomannine [9] was 2.90 mg/L, the yield of taxol [9] was 5.63 mg/L and the growth rate [10] was 2.6 times. For the same compound, the “total yield of taxane” value [10] was 50.25 mg/L, the “yield of baccatin III” value [10] was 18.96 mg/L and the yield of cephalomannine [10] was 9.74 mg/L. The yield of taxol [10] was 21.55 mg/L, the growth rate [11] was 2.6 times and the “total yield of taxane” value [11] was 57.89 mg/L. For the same compound, the “yield of baccatin III” value [11] was 19.65 mg/L, the yield of cephalomannine [11] was 8.57 mg/L and the yield of taxol [11] was 29.67 mg/L. For the same compound, the growth rate [12] was 2.7 times, the “total yield of taxane” value [12] was 40.29 mg/L and the “yield of baccatin III” value [12] was 13.43 mg/L. It also gave a yield of cephalomannine [12] of 7.81 mg/L, a yield of taxol [12] of 19.05 mg/L and a growth rate [13] of 3.2 times. The “total yield of taxane” value [13] was 23.16 mg/L, the “yield of baccatin III” value [13] was 3.61 mg/L and the yield of cephalomannine [13] was 6.04 mg/L. The yield of taxol [13] was 13.51 mg/L, the growth rate [14] was 3.1 times and the “total yield of taxane” value [14] was 18.89 mg/L. For the same compound, the “yield of baccatin III” value [14] was 1.34 mg/L, the yield of cephalomannine [14] was 5.79 mg/L and the yield of taxol [14] was 11.76 mg/L. The growth rate [15] was 3.1 times, the “total yield of taxane” value [15] was 4.39 mg/L and the “yield of baccatin III” value [15] was 0.66 mg/L. For the same compound, the yield of cephalomannine [15] was 1.74 mg/L, the yield of taxol [15] was 1.99 mg/L and the growth rate [16] was 2.9 times. For the same compound, the “total yield of taxane” value [16] was 1.21 mg/L, the “yield of baccatin III” value [16] was 0.31 mg/L and the yield of cephalomannine [16] was 0.58 mg/L. For the same compound, the yield of taxol [16] was 0.32 mg/L.
With O=P(O)(O)CCCl [Reference Example 1] the growth rate [17] was 2.7 times, the “total yield of taxane” value [17] was 0.40 mg/L and the “yield of baccatin III” value [18] was 0.12 mg/L. The yield of cephalomannine [18] was 0.14 mg/L and the yield of taxol [18] was 0.14 mg/L.
With CCCOC(=O)c1cc(O)c(O)c(O)c1 [propyl gallate] the growth rate [19] was 1.1 times, the “total yield of taxane” value [19] was 0.01 mg/L and the “yield of baccatin III” value [19] was 0.01 mg/L. It also gave a yield of cephalomannine [19] of 0 mg/L, a yield of taxol [19] of 0 mg/L and a growth rate [20] of 1.9 times. For the same compound, the “total yield of taxane” value [20] was 1.38 mg/L, the “yield of baccatin III” value [20] was 0.48 mg/L and the yield of cephalomannine [20] was 0.25 mg/L. The yield of taxol [20] was 0.65 mg/L, the growth rate [21] was 2.9 times and the “total yield of taxane” value [21] was 7.03 mg/L. For the same compound, the “yield of baccatin III” value [21] was 0.69 mg/L, the yield of cephalomannine [21] was 2.01 mg/L and the yield of taxol [21] was 4.33 mg/L. For the same compound, the growth rate [22] was 3.2 times, the “total yield of taxane” value [22] was 12.10 mg/L and the “yield of baccatin III” value [22] was 0.84 mg/L. The yield of cephalomannine [22] was 4.30 mg/L, the yield of taxol [22] was 6.96 mg/L and the growth rate [23] was 3.0 times. For the same compound, the “total yield of taxane” value [23] was 12.27 mg/L, the “yield of baccatin III” value [23] was 0.87 mg/L and the yield of cephalomannine [23] was 4.42 mg/L. The yield of taxol [23] was 6.98 mg/L, the growth rate [8] was 3.0 times and the “total yield of taxane” value [8] was 16.13 mg/L. For the same compound, the “yield of baccatin III” value [8] was 2.82 mg/L, the yield of cephalomannine [8] was 5.07 mg/L and the yield of taxol [8] was 8.24 mg/L. For the same compound, the growth rate [24] was 3.1 times, the “total yield of taxane” value [24] was 13.95 mg/L and the “yield of baccatin III” value [24] was 1.91 mg/L. The yield of cephalomannine [24] was 4.38 mg/L, the yield of taxol [24] was 7.66 mg/L and the growth rate [25] was 2.7 times. The “total yield of taxane” value [25] was 2.79 mg/L, the “yield of baccatin III” value [25] was 0.55 mg/L and the yield of cephalomannine [25] was 0.72 mg/L. For the same compound, the yield of taxol [25] was 1.52 mg/L, the growth rate [26] was 2.7 times and the “total yield of taxane” value [26] was 1.74 mg/L. The “yield of baccatin III” value [26] was 0.42 mg/L, the yield of cephalomannine [26] was 0.68 mg/L and the yield of taxol [26] was 0.74 mg/L. For the same compound, the growth rate [27] was 2.7 times, the “total yield of taxane” value [27] was 1.37 mg/L and the “yield of baccatin III” value [27] was 0.41 mg/L. It also gave a yield of cephalomannine [27] of 0.59 mg/L and a yield of taxol [27] of 0.37 mg/L.
